Molecules are shown by their SMILES.

Chain of recombinant Human Phosphodiesterase B2 (PDE4B2) (Q07343 1-564 isoform Q07343-2): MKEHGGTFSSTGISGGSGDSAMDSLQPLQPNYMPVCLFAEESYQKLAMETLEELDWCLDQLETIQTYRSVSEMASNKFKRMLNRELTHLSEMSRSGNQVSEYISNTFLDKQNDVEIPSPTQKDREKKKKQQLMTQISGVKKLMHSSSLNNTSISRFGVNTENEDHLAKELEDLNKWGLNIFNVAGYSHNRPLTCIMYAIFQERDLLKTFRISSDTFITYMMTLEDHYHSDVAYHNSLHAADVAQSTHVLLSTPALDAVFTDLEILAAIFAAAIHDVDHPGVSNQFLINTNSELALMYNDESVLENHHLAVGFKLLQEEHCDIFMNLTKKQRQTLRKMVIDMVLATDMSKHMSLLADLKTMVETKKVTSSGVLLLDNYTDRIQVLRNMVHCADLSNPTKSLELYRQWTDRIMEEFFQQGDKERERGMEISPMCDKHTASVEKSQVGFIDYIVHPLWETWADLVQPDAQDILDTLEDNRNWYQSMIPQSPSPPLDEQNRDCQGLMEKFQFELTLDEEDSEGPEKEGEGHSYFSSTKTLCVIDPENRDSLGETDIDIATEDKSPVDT

The assay concerns the target recombinant Human Phosphodiesterase B2 (PDE4B2) (Homo sapiens, UniProt Q07343). Briefly: Human Phosphodiesterase B2 Alpha Screen Assay. It counts as biochemical. The conditions noted are these: cAMP substrate, Alpha Screen cAMP kit, 60 minutes at room temperature. How it is done:
Human Phosphodiesterase B2 Alpha Screen Assay
The assay uses recombinant Human Phosphodiesterase B2 (PDE4B2) produced in house (PrAZL0133), stored at −20° C. The substrate uses cAMP, part of the Alpha Screen cAMP kit (Perkin Elmer, Cat# 6760625M), stored at 4° C. The Alpha Screen kit also includes biotinylated cAMP, acceptor and donor beads.
The assay additions were as follows: Test compounds and controls were added to white 384-well flat-bottom plates (Greiner, Cat# 781075), 0.2 μl in 100% DMSO, followed by 10 μl PDE4B2 in reaction buffer. The reaction buffer constitution was: 50 mM Tris (pH 7.5), 8.3 mM MgCl2, 1.7 mM EGTA and 0.01% (w/v) Brij®35. The enzyme and the compounds were incubated at room temperature for 15 minutes. Then 10 μl cAMP in reaction buffer was added. The assay was stopped after 60 minutes incubation at room temperature by adding 10 μl acceptor beads in detection buffer with 40 mM EDTA. The detection buffer constitution was: 5 mM Tris (pH 7.5), 0.1% (w/v) BSA and 0.1% (v/v) Tween 20. This addition followed by an addition of 10 μl donor beads in detection buffer, with biotinylated cAMP. The plates were then incubated, dark at room temperature, for 5 hours followed by measurement on a Fusion™-α analyser. IC50 values (presented in Table 1) were determined using Xlfit curve fitting using model 205.
A word on the IC50: it is the concentration that inhibits the measured activity by half. As for `O=C(N[C@H]1CC[C@@H](n2c(=O)c3cc(F)cnc3n(-c3ccc(F)c(F)c3)c2=O)CC1)c1ccc(Cl)cc1O` [Example 18, 4-chloro-N-{cis-4-[1-(3,4-difluorophenyl)-6-fluoro-2,4-dioxo-1,4-dihydropyrido[2,3-d]pyrimidin-3(2H)-yl]cyclohexyl}-2-hydroxybenzamide], the IC50 was determined as 2.7 nM.
As for `COc1ccc(C(=O)N[C@H]2CC[C@@H](n3c(=O)c4cc(F)cnc4n(-c4ccc(F)c(F)c4)c3=O)CC2)c(O)c1` [Example 19, N-{cis-4-[1-(3,4-difluorophenyl)-6-fluoro-2,4-dioxo-1,4-dihydropyrido[2,3-d]pyrimidin-3(2H)-yl]cyclohexyl}-2-hydroxy-4-methoxybenzamide], the IC50 is 2 nM.
For `O=C(N[C@H]1CC[C@@H](n2c(=O)c3cc(F)cnc3n(-c3ccc(F)c(F)c3)c2=O)CC1)c1cc(F)ccc1O` [Example 20, N-{cis-4-[1-(3,4-difluorophenyl)-6-fluoro-2,4-dioxo-1,4-dihydropyrido[2,3-d]pyrimidin-3(2H)-yl]cyclohexyl}-5-fluoro-2-hydroxybenzamide], the IC50 is 3.6 nM.
With `CC(C)C[C@H](O)C(=O)N[C@H]1CC[C@@H](n2c(=O)c3cc(F)cnc3n(-c3ccc(F)c(F)c3)c2=O)CC1` [Example 21, (2S)-N-{cis-4-[1-(3,4-difluorophenyl)-6-fluoro-2,4-dioxo-1,4-dihydropyrido[2,3-d]pyrimidin-3(2H)-yl]cyclohexyl}-2-hydroxy-4-methylpentanamide] the figure was 3.6 nM; with `O=C(N[C@H]1CC[C@@H](n2c(=O)c3cc(F)cnc3n(-c3ccc(F)c(F)c3)c2=O)CC1)[C@H](O)C1CCCCC1` [Example 22, (2R)-2-cyclohexyl-N-{cis-4-[1-(3,4-difluorophenyl)-6-fluoro-2,4-dioxo-1,4-dihydropyrido[2,3-d]pyrimidin-3(2H)-yl]cyclohexyl}-2-hydroxyacetamide], 1 nM.
The result for `COC(=O)CCC(=O)N[C@H]1CC[C@@H](n2c(=O)c3cc(F)cnc3n(-c3ccc(F)c(F)c3)c2=O)CC1` [Example 23, methyl 4-({cis-4-[1-(3,4-difluorophenyl)-6-fluoro-2,4-dioxo-1,4-dihydropyrido[2,3-d]pyrimidin-3(2H)-yl]cyclohexyl}amino)-4-oxobutanoate] reads 3.8 nM.
As to `O=C(CNC(=O)c1ccccc1O)N[C@H]1CC[C@@H](n2c(=O)c3cc(F)cnc3n(-c3ccc(F)c(F)c3)c2=O)CC1` [Example 24, N-[2-({cis-4-[1-(3,4-difluorophenyl)-6-fluoro-2,4-dioxo-1,4-dihydropyrido[2,3-d]pyrimidin-3(2H)-yl]cyclohexyl}amino)-2-oxoethyl]-2-hydroxybenzamide], the half-maximal inhibitory concentration (IC50) is 0.6 nM.
With `COC(=O)c1ccc(C(=O)N[C@H]2CC[C@@H](n3c(=O)c4cc(F)cnc4n(-c4ccc(F)c(F)c4)c3=O)CC2)cc1` [Example 25, methyl 4-[({cis-4-[1-(3,4-difluorophenyl)-6-fluoro-2,4-dioxo-1,4-dihydropyrido[2,3-d]pyrimidin-3(2H)-yl]cyclohexyl}amino)carbonyl]benzoate] the figure was 1.9 nM.
For `COc1ccc(C(=O)N[C@H]2CC[C@@H](n3c(=O)c4cc(F)cnc4n(-c4ccc(F)c(F)c4)c3=O)CC2)cc1O` [Example 26, N-{cis-4-[1-(3,4-difluorophenyl)-6-fluoro-2,4-dioxo-1,4-dihydropyrido[2,3-d]pyrimidin-3(2H)-yl]cyclohexyl}-3-hydroxy-4-methoxybenzamide], the IC50 was 1 nM.
Take `COC(=O)CCCC(=O)N[C@H]1CC[C@@H](n2c(=O)c3cc(F)cnc3n(-c3ccc(F)c(F)c3)c2=O)CC1` [Example 27, methyl 5-({cis-4-[1-(3,4-difluorophenyl)-6-fluoro-2,4-dioxo-1,4-dihydropyrido[2,3-d]pyrimidin-3(2H)-yl]cyclohexyl}amino)-5-oxopentanoate]: the IC50 was determined as 1.7 nM.
Turning to `O=C(Cc1cccc(O)c1)N[C@H]1CC[C@@H](n2c(=O)c3cc(F)cnc3n(-c3ccc(F)c(F)c3)c2=O)CC1` [Example 28, N-{cis-4-[1-(3,4-difluorophenyl)-6-fluoro-2,4-dioxo-1,4-dihydropyrido[2,3-d]pyrimidin-3(2H)-yl]cyclohexyl}-2-(3-hydroxyphenyl)acetamide], the half-inhibitory concentration (IC50) stood at 0.9 nM.
On to `COC(=O)c1cccc(C(=O)N[C@H]2CC[C@@H](n3c(=O)c4cc(F)cnc4n(-c4ccc(F)c(F)c4)c3=O)CC2)c1` [Example 29, methyl 3-[({cis-4-[1-(3,4-difluorophenyl)-6-fluoro-2,4-dioxo-1,4-dihydropyrido[2,3-d]pyrimidin-3(2H)-yl]cyclohexyl}amino)carbonyl]benzoate], for which the IC50 amounted to 1.2 nM.
`O=C(N[C@H]1CC[C@@H](n2c(=O)c3cc(F)cnc3n(-c3ccc(F)c(F)c3)c2=O)CC1)c1c(O)cccc1F` [Example 30, N-{cis-4-[1-(3,4-difluorophenyl)-6-fluoro-2,4-dioxo-1,4-dihydropyrido[2,3-d]pyrimidin-3(2H)-yl]cyclohexyl}-2-fluoro-6-hydroxybenzamide]: the IC50 was 1.1 nM.
The result for `O=C(CCc1cccc(O)c1)N[C@H]1CC[C@@H](n2c(=O)c3cc(F)cnc3n(-c3ccc(F)c(F)c3)c2=O)CC1` [Example 31, N-{cis-4-[1-(3,4-difluorophenyl)-6-fluoro-2,4-dioxo-1,4-dihydropyrido[2,3-d]pyrimidin-3(2H)-yl]cyclohexyl}-3-(3-hydroxyphenyl)propanamide] reads 1.5 nM; that for `O=C(N[C@H]1CC[C@@H](n2c(=O)c3cc(F)cnc3n(-c3ccc(F)c(F)c3)c2=O)CC1)c1n[nH]c2ccccc12` [Example 32, N-{cis-4-[1-(3,4-difluorophenyl)-6-fluoro-2,4-dioxo-1,4-dihydropyrido[2,3-d]pyrimidin-3(2H)-yl]cyclohexyl}-1H-indazole-3-carboxamide], 0.6 nM.
As to `O=C(N[C@H]1CC[C@@H](n2c(=O)c3cc(F)cnc3n(-c3ccc(F)c(F)c3)c2=O)CC1)c1cn2ccccc2n1` [Example 33, N-{cis-4-[1-(3,4-difluorophenyl)-6-fluoro-2,4-dioxo-1,4-dihydropyrido[2,3-d]pyrimidin-3(2H)-yl]cyclohexyl}imidazo[1,2-a]pyridine-2-carboxamide], the half-maximal inhibitory concentration (IC50) was found to be 0.5 nM.
In the case of `CSc1cccc(-n2c(=O)n([C@H]3CC[C@@H](NC(=O)c4cc(Cl)ccc4O)CC3)c(=O)c3cc(F)cnc32)c1` [Example 34, 5-chloro-N-{cis-4-[6-fluoro-1-[3-(methylthio)phenyl]-2,4-dioxo-1,4-dihydropyrido[2,3-d]pyrimidin-3(2H)-yl]cyclohexyl}-2-hydroxybenzamide], the 50% inhibitory concentration (IC50) stood at 3.2 nM.
The result for `CSc1cccc(-n2c(=O)n([C@H]3CC[C@@H](NC(=O)c4cc(C)ccc4O)CC3)c(=O)c3cc(F)cnc32)c1` [Example 35, N-{cis-4-[6-fluoro-1-[3-(methylthio)phenyl]-2,4-dioxo-1,4-dihydropyrido[2,3-d]pyrimidin-3(2H)-yl]cyclohexyl}-2-hydroxy-5-methylbenzamide] reads 1.4 nM.
With `CSc1cccc(-n2c(=O)n([C@H]3CC[C@@H](NC(=O)c4cc(CO)ccc4O)CC3)c(=O)c3cc(F)cnc32)c1` [Example 36, N-{cis-4-[6-fluoro-1-[3-(methylthio)phenyl]-2,4-dioxo-1,4-dihydropyrido[2,3-d]pyrimidin-3(2H)-yl]cyclohexyl}-2-hydroxy-5-(hydroxymethyl)benzamide] the figure was 2.9 nM; with `CSc1cccc(-n2c(=O)n([C@H]3CC[C@@H](NC(=O)[C@H](O)c4ccccc4)CC3)c(=O)c3cc(F)cnc32)c1` [Example 37, (2R)-N-{cis-4-[6-fluoro-1-[3-(methylthio)phenyl]-2,4-dioxo-1,4-dihydropyrido[2,3-d]pyrimidin-3(2H)-yl]cyclohexyl}-2-hydroxy-2-phenylacetamide], 0.5 nM; with `CSc1cccc(-n2c(=O)n([C@H]3CC[C@@H](NC(=O)[C@@H](O)c4ccccc4)CC3)c(=O)c3cc(F)cnc32)c1` [Example 38, (2S)-N-{cis-4-[6-fluoro-1-[3-(methylthio)phenyl]-2,4-dioxo-1,4-dihydropyrido[2,3-d]pyrimidin-3(2H)-yl]cyclohexyl}-2-hydroxy-2-phenylacetamide], < 16 nM.
On to `CSc1cccc(-n2c(=O)n([C@H]3CC[C@@H](NC(=O)CO)CC3)c(=O)c3cc(F)cnc32)c1` [Example 39, N-{cis-4-[6-fluoro-1-[3-(methylthio)phenyl]-2,4-dioxo-1,4-dihydropyrido[2,3-d]pyrimidin-3(2H)-yl]cyclohexyl}-2-hydroxyacetamide], for which the IC50 amounted to 23.7 nM.
With `CS(=O)(=O)c1cccc(-n2c(=O)n([C@H]3CC[C@@H](NC(=O)c4cc(Cl)ccc4O)CC3)c(=O)c3cc(F)cnc32)c1` [Example 40, 5-chloro-N-{cis-4-[6-fluoro-1-[3-(methylsulfonyl)phenyl]-2,4-dioxo-1,4-dihydropyrido[2,3-d]pyrimidin-3(2H)-yl]cyclohexyl}-2-hydroxybenzamide], the IC50 came to 90.6 nM.
